pIC50: −log10 of the molar value.
Molecular target: T1, human TLR7 (Homo sapiens, UniProt Q9NYK1)
T1 sequence (Q9NYK1 27-1049): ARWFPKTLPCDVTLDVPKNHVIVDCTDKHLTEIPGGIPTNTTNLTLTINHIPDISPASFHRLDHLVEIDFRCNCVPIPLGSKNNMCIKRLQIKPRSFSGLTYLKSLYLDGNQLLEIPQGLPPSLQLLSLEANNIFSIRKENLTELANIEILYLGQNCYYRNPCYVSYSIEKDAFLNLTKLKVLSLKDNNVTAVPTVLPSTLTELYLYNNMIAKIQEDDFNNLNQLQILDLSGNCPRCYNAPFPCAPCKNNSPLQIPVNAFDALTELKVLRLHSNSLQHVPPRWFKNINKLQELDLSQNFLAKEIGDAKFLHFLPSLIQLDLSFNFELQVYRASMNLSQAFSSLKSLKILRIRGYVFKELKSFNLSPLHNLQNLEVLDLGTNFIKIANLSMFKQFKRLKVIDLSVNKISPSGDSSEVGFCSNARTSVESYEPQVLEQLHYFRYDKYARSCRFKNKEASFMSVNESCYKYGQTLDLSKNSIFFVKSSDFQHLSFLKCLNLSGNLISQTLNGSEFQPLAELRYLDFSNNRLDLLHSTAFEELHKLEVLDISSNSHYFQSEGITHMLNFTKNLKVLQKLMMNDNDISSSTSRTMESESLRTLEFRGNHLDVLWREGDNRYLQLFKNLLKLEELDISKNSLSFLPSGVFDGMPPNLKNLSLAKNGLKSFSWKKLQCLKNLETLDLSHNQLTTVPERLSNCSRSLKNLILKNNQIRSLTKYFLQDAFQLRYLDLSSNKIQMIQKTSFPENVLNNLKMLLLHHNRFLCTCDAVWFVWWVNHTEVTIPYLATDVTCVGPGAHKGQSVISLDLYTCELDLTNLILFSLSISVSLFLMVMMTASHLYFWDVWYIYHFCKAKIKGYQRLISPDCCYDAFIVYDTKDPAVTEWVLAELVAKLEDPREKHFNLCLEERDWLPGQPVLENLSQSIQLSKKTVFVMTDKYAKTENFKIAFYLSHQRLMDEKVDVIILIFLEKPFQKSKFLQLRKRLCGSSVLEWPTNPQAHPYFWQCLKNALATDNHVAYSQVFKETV
Test: HEK293-Blue-hTLR-7 cells assay (SEAP reporter, R848 stimulation)
Format: cell-based
Conditions: HEK293-Blue-hTLR7 cells, R848 ligand, 20 hrs incubation
Method in brief: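 Antagonism measured in stable HEK293-Blue-hTLR7 cells carrying an NF-κB/AP-1-driven SEAP reporter, stimulated with R848 (10 µL of 20 µM stock) with serially diluted compound, 1% DMSO, 20 h at 37 °C. Supernatant SEAP read with QUANTI-Blue after 2 h at 37 °C, absorbance 620–655 nm.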

| SMILES | pIC50 |
| --- | --- |
| C[C@H]1CN(c2ccc(C#N)c3ncccc23)C[C@@H]1CN1CCC2(CCNC2)C1 (stereo partly drawn) [Example 35, 5-[(3S,4R)-3-(2,7-diazaspiro[4.4]nonan-2-ylmethyl)-4-methyl-pyrrolidin-1-yl]quinoline-8-carbonitrile] | 6.33 |
| CC(C)[C@@H]1CN(c2ccc(C#N)c3ncccc23)C[C@H]1CN1CCC2(CCNCC2)CC1 (relative stereo) [Example 36, 5-[Trans-3-(3,9-diazaspiro[5.5]undecan-3-ylmethyl)-4-isopropyl-pyrrolidin-1-yl]quinoline-8-carbonitrile] | 6.33 |
| N#Cc1ccc(N2C[C@H](CN3CCC(N4CCNCC4)CC3)[C@@H](C(F)(F)F)C2)c2cccnc12 [Example 52, 5-[(3S,4R)-3-[(4-piperazin-1-yl-1-piperidyl)methyl]-4-(trifluoromethyl)pyrrolidin-1-yl]quinoline-8-carbonitrile] | 7.41 |
| N#Cc1ccc(N2C[C@H](CN3C4CCC3CC(N)C4)[C@@H](C(F)(F)F)C2)c2nccnc12 (stereo partly drawn) [Example 63, 8-[(3S,4R)-3-[(3-amino-8-azabicyclo[3.2.1]octan-8-yl)methyl]-4-(trifluoromethyl)pyrrolidin-1-yl]quinoxaline-5-carbonitrile] | 7.24 |
| FC(F)(F)c1ccc(N2C[C@@H](CN3CCC4(CCNC4)C3)[C@H](C(F)(F)F)C2)c2nccnc12 (relative stereo) [Example 19, 5-[Trans-3-(2,7-diazaspiro[4.4]nonan-2-ylmethyl)-4-(trifluoromethyl)pyrrolidin-1-yl]-8-(trifluoromethyl)quinoxaline] | 6.85 |
| N#Cc1ccc(N2CC(CN3CCC(N4CCCCC4)CC3)C3(CC3)C2)c2nccnc12 (centres unmarked) [Example 11, 8-[7-[[4-(1-Piperidyl)-1-piperidyl]methyl]-5-azaspiro[2.4]heptan-5-yl]quinoxaline-5-carbonitrile] | 7.13 |
| CN(C)C[C@@H]1CCN(C[C@H]2CN(c3ccc(C#N)c4nccnc34)C[C@@H]2C(F)(F)F)C1 [Example 82, 8-[(3S,4R)-3-[[(3S)-3-[(dimethylamino)methyl]pyrrolidin-1-yl]methyl]-4-(trifluoromethyl)pyrrolidin-1-yl]quinoxaline-5-carbonitrile] | 6.97 |
| N#Cc1ccc(N2CC(CN3CC4CCNCC43)C3(CC3)C2)c2nccnc12 (centres unmarked) [Example 50, 8-[7-(3,8-Diazabicyclo[4.2.0]octan-8-ylmethyl)-5-azaspiro[2.4]heptan-5-yl]quinoxaline-5-carbonitrile] | 6.63 |
